Here are results for seven compounds from EP0588799B1, “NEW SULPHONAMIDES, PROCESS FOR PREPARING THE SAME AND MEDICAMENTS CONTAINING THESE COMPOUNDS” (BOEHRINGER MANNHEIM GMBH, priority 1991, dated 1992).

For one experiment, the system named is P 388 D.1 Makrophagen. The experiment can be described thus: Inhibition of cholesterol ester formation in macrophages (after Huber et al.). The class given is cell-based. Particulars: P 388 D.1 macrophages; for Hemmung der Cholesterinesterbildung in Macro- (P388D.1): 18 h incubation, F-10 medium + 1 µM Cu(II) + 50 µg/ml LDL + 5 % FCS, test concentration not given. The procedure: Hemmung der Cholesterinesterbildung in Makrophagen (nach Huber et al. (1990) Free Rad. Res. Comms. 8, 167-173)
Humanplasma-LDL wurde durch sequentielle Ultrazentrifugation bei präselekierten Dichten aus dem Plasma gesunder männlicher Nichtraucher isoliert und für 5 h bei 37° C in F-10 Medium + 1µM Cu(II) zur Depletion seiner lipophilen Antioxidantien inkubiert. Die Bildung von Cholesterinestern in P 388 D.1 Makrophagen unter Einfluß von konditioniertem human Plasma-LDL wurde nach 18 h Inkubation der Zellen (2 x 10^6/ml) in F-10 Medium + 1 µM Cu(II) + 50 µg/ml LDL + 5 % FCS nach Extraktion der Neutral fette dünnschichtchromatographisch gemessen.

In the next experiment the test system is Plasma-LDL. Put plainly: Stabilisation of plasma LDL: prolongation of the lag phase of Cu(II)-induced oxidation (diene formation at A 234). Format: biochemical, human. Particulars: for Stabilisierung v. Plasma LDL: Verlängerung der "lag-Phase": 3 molecules test substance per LDL particle, LDL 125 µg protein/ml, 10 µM CuCl2, pH 8, 42° C. The procedure:
Stabilisierung von Plasma-LDL (nach Huber et al. (1990) Free Rad. Res. Comms. 8, 167-173)
LDL (125 µg Protein/ml) wurde in 20 mM Tris-Cl pH 8, 150 mM NaCl, 10 µM CuCl2 mit und ohne Testverbindung (gelöst in Äthanol, Äthanolendkonzentration 0,5 %) bei 42° C oxidiert. Es wurden jeweils 3 Moleküle Testsubstanz pro LDL-Partikel eingesetzt. Die Oxidation wurde kontinuierlich photometrisch bei A 234 durch die Messung der Dienbildung verfolgt. Die sogenannte "lag Phase" ist als dasjenige Zeitintervall definiert, das sich aus dem Schnittpunkt der Tangente der Kurve während der Propagationsreaktion der Lipidperoxidation und der Zeitachse ergibt.

Turning to `CC(C)(C)c1cc(S(=O)(=O)NCc2ccccc2)cc(C(C)(C)C)c1O` [1b).2, (3,5-Di-^tbutyl-4-hydroxy)benzolsulfo-benzylamid], the “Hemmung der Cholesterinesterbildung in Macro- (P388D.1)” value (shortened to “Hemmung der Cholesterinesterbildung”) with P 388 D.1 Makrophagen is -73,0. Moreover, the “Stabilisierung v. Plasma LDL: Verlängerung der "lag-Phase"” value in the experiment with Plasma-LDL turned out to be 8. Consider `Cc1cc(C(C)(C)C)c(O)c(S(=O)(=O)NCc2ccccc2)c1` [Beispiel 2.2, (3-^tButyl-2-hydroxy-5-methyl)benzolsulfo-benzylamid], for which the “Hemmung der Cholesterinesterbildung” value in the experiment on P 388 D.1 Makrophagen was -64.1. As to `CC(C)(C)c1cc(NS(=O)(=O)c2cc(C(C)(C)C)c(O)c(C(C)(C)C)c2)cc(C(C)(C)C)c1O` [Beispiel 3.10], the “Hemmung der Cholesterinesterbildung” value in the experiment on P 388 D.1 Makrophagen is -77.4.

For `CC(C)(C)c1cc(CNS(=O)(=O)c2cc(C(C)(C)C)c(O)c(C(C)(C)C)c2)cc(C(C)(C)C)c1O` [Beispiel 3.11], the “Hemmung der Cholesterinesterbildung” value with P 388 D.1 Makrophagen was -66.7. Besides, the “Stabilisierung v. Plasma LDL: Verlängerung der "lag-Phase"” value with Plasma-LDL amounted to 79. As for `CC(C)(C)c1cc(CCNS(=O)(=O)c2cc(C(C)(C)C)c(O)c(C(C)(C)C)c2)cc(C(C)(C)C)c1O` [Beispiel 3.12], the “Hemmung der Cholesterinesterbildung” value in the experiment with P 388 D.1 Makrophagen is given as -63.4. Take `CC(C)(C)c1cc(CCCNS(=O)(=O)c2cc(C(C)(C)C)c(O)c(C(C)(C)C)c2)cc(C(C)(C)C)c1O` [Beispiel 3.13]: the “Hemmung der Cholesterinesterbildung” value in the experiment on P 388 D.1 Makrophagen was -72.6. `CC(C)(Sc1cc(C(C)(C)C)c(O)c(C(C)(C)C)c1)Sc1cc(C(C)(C)C)c(O)c(C(C)(C)C)c1` [Probucol, reference compound]: the “Hemmung der Chol-ester-bildung” value in the experiment with P 388 D.1 Makrophagen (reference substance, 10 /uM, n=7) was 25-42%. Also, the “verlängern die lag-Phase von LDL” value with Plasma-LDL (reference substance, 3 molecules/LDL particle) was determined as 10%.
